Measurements taken from patent US8877815B2, “Substituted carbamoylcycloalkyl acetic acid derivatives as NEP” (Novartis AG, priority 2010, dated 2014).

The compounds below were run against T1, recombinant human neutral endopeptidase (NEP, EC 3.4.24.11) (Homo sapiens, UniProt P08473) (assay: in vitro inhibition of recombinant human neutral endopeptidase (fluorescence lifetime assay)). Conditions: 1 hour pre-incubation, read after 1 hour at room temperature, pH 7.4, substrate Cys(PT14)-Arg-Arg-Leu-Trp-OH 0.7 μM.
T1 construct: made in house; host or cells: insect cells
T1 sequence (P08473 whole entry): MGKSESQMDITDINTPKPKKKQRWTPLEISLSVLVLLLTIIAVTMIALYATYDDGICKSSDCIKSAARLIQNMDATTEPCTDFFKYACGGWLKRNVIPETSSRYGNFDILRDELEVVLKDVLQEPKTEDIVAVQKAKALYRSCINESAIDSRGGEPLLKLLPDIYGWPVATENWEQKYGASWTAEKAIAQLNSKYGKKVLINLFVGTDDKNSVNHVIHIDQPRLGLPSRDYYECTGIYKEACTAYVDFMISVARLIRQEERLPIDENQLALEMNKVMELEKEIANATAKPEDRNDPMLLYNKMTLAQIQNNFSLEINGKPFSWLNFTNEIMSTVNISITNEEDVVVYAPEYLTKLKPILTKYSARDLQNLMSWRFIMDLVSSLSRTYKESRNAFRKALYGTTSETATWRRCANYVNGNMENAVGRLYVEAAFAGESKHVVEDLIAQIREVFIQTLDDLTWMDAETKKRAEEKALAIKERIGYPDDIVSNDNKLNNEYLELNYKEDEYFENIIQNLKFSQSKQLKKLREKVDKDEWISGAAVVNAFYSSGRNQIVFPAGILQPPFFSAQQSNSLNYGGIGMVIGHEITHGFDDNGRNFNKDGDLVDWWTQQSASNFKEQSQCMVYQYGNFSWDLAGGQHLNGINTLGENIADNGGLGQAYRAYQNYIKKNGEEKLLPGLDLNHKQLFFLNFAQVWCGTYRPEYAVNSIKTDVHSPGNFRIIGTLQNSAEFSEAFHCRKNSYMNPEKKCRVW
Type: biochemical
Text: The activity of a compound according to the present invention can be assessed by the following in vitro & in vivo methods and/or by the following in vitro & in vivo methods well-described in the art. See A fluorescence lifetime-based assay for protease inhibitor profiling on human kallikrein 7 Doering K, Meder G, Hinnenberger M, Woelcke J, Mayr L M, Hassiepen U Biomol Screen. 2009 January; 14(1):1-9.
In particular, the in vitro inhibition of recombinant human neutral endopeptidase (NEP, EC 3.4.24.11) can be determined as follows:
Recombinant human neutral endopeptidase (expressed in insect cells and purified using standard methods, final concentration 7 pM) is pre-incubated with test compounds at various concentrations for 1 hour at room temperature in 10 mM sodium phosphate buffer at pH 7.4, containing 150 mM NaCl and 0.05% (w/v) CHAPS. The enzymatic reaction is started by the addition of a synthetic peptide substrate Cys(PT14)-Arg-Arg-Leu-Trp-OH to a final concentration of 0.7 μM. Substrate hydrolysis leads to an increase fluorescence lifetime (FLT) of PT14 measured by the means of a FLT reader as described by Doering et al. (2009). The effect of the compound on the enzymatic activity was determined after 1 hour (t=60 min) incubation at room temperature. The IC50 values, corresponding to the inhibitor concentration showing 50% reduction of the FLT values measured in absence of inhibitor, are calculated from the plot of percentage of inhibition vs. inhibitor concentration using non-linear regression analysis software.

Row | Compound | IC50 [nM]
1 | O=C(O)CC1(C(=O)N[C@@H](Cc2ccc(-c3ccccc3Cl)cc2)c2nnn[nH]2)CCCC1 [Example 8-1] | 6
2 | O=C(O)CC1(C(=O)N[C@@H](Cc2ccc(-c3ccccc3)cc2)C(=O)O)CCCC1 [Example 1-7] | 15
3 | O=C(O)CC1(C(=O)N[C@@H](Cc2ccc(-c3ccccc3)cc2)C(=O)N2CCC[C@H]2C(=O)O)CCCC1 [Example 1-1, (S)-1-((S)-3-(biphenyl-4-yl)-2-(1-(carboxymethyl)cyclopentanecarboxamido)propanoyl)pyrrolidine-2-carboxylicacid] | 12

The next lines start with the values.

Row | IC50 [nM] | Compound
4 | 11 | COc1cccc(-c2ccc(C[C@H](NC(=O)C3(CC(=O)O)CCCC3)c3nnn[nH]3)cc2)c1 [Example 9-2]
5 | 10 | O=C(O)CC1(C(=O)N[C@@H](Cc2ccc(-c3ccccc3)cc2)c2nnn[nH]2)CCCC1 [Example 31-2, {1-[(S)-2-Biphenyl-4-yl-1-(1H-tetrazol-5-yl)-ethylcarbamoyl]-cyclopentyl}-acetic acid]
6 | 40 | Cc1cccc(-c2ccc(C[C@H](NC(=O)C3(CC(=O)O)CCCC3)c3nnn[nH]3)cc2)c1 [Example 9-1, (S)-2-(1-(2-(3′-methylbiphenyl-4-yl)-1-(1H-tetrazol-5-yl)ethylcarbamoyl)cyclopentyl)acetic acid]
